PubChem BioAssay AID330 (DTP/NCI, 2004)
Where “and” joins values, the source holds several entries; their conditions need not be identical. Identical values can stand only once. Inconclusive results and toxic doses are left out. How the source made its calls: active means survival T/C of 150% or more; inactive means T/C below 125% in these data.

Tested on: P388 leukemia ip, CD2F1 mice, survival T/C
Assay: NCI In Vivo Anticancer Drug Screen. Data for tumor model P388 Leukemia (intraperitoneal) in CD2F1 (CDF1) mice
Details: endpoint: median survival time, higher = longer survival
In short: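 Mice carrying the transplanted tumor received test compound or vehicle. Survival was recorded in each group, and the value is the treated-group measurement divided by that of the vehicle-treated control group.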

[1] = dose: 100.0 mg/kg/injection, schedule: Q04DX002 (ip), vehicle: Klucel (hydroxypropylcellulose) (HPC)
[2] = dose: 200.0 mg/kg/injection, schedule: Q04DX002 (ip), vehicle: Klucel (hydroxypropylcellulose) (HPC)
[3] = dose: 50.0 mg/kg/injection, schedule: Q01DX009 (ip), vehicle: water
[4] = dose: 100.0 mg/kg/injection, schedule: Q01DX009 (ip), vehicle: water
[5] = dose: 200.0 mg/kg/injection, schedule: Q01DX009 (ip), vehicle: water
[6] = dose: 60.0 mg/kg/injection, schedule: Q01DX005 (ip), vehicle: saline with Tween-80
[7] = dose: 120.0 mg/kg/injection, schedule: Q01DX005 (ip), vehicle: saline with Tween-80
[8] = dose: 240.0 mg/kg/injection, schedule: Q01DX005 (ip), vehicle: saline with Tween-80
[9] = dose: 60.0 mg/kg/injection, schedule: Q01DX005 (ip), vehicle: Klucel (hydroxypropylcellulose) (HPC)

Measured: T/C

O=C(NC1CCCCC1(O)c1ccc([N+](=O)[O-])cc1)C(Cl)Cl (stereo not given)
inactive: [1] 100 % of control | [2] 100 % of control

CC(C)=CCc1c(-c2ccc(O)cc2O)oc2c([C@H]3C=C(C)CC(c4ccc(O)cc4O)[C@@H]3C(=O)c3ccc(O)cc3O)c(O)cc(O)c2c1=O (stereo not given in full)
inactive: dose: 8.75 mg/kg/injection, schedule: Q01DX005 (ip), vehicle: Klucel (hydroxypropylcellulose) (HPC) 99 % of control | dose: 17.5 mg/kg/injection, schedule: Q01DX005 (ip), vehicle: Klucel (hydroxypropylcellulose) (HPC) 98 % of control | dose: 35.0 mg/kg/injection, schedule: Q01DX005 (ip), vehicle: Klucel (hydroxypropylcellulose) (HPC) 92 % of control | dose: 70.0 mg/kg/injection, schedule: Q01DX005 (ip), vehicle: Klucel (hydroxypropylcellulose) (HPC) 92 % of control | dose: 140.0 mg/kg/injection, schedule: Q01DX005 (ip), vehicle: Klucel (hydroxypropylcellulose) (HPC) 108 % of control

Cc1ccc(S(=O)(=O)/C(=C/c2c(-c3ccccc3)c(-c3ccccc3)c3n2CCC3)NC=O)cc1
inactive: dose: 100.0 mg/kg/injection, schedule: Q01DX001 (ip), vehicle: saline with Tween-80 96 % of control | dose: 200.0 mg/kg/injection, schedule: Q01DX001 (ip), vehicle: saline with Tween-80 88 % of control | dose: 400.0 mg/kg/injection, schedule: Q01DX001 (ip), vehicle: saline with Tween-80 86 % of control

C=C1C(=O)C23C(OC(=O)/C=C/c4ccccc4)C1CCC2C12COC3(O)C(O)C1C(C)(C)CCC2O (stereo not given)
inactive: dose: 3.75 mg/kg/injection, schedule: Q01DX009 (ip), vehicle: saline with Tween-80 98 % of control | dose: 7.5 mg/kg/injection, schedule: Q01DX009 (ip), vehicle: saline with Tween-80 95 % of control | dose: 15.0 mg/kg/injection, schedule: Q01DX009 (ip), vehicle: saline with Tween-80 101 % of control | dose: 30.0 mg/kg/injection, schedule: Q01DX009 (ip), vehicle: saline with Tween-80 98 % of control

CCCCCCCCCCCCCCCCCCNCCC#N
inactive: dose: 12.5 mg/kg/injection, schedule: Q01DX009 (ip), vehicle: Klucel (hydroxypropylcellulose) (HPC) 101 % of control | dose: 25.0 mg/kg/injection, schedule: Q01DX009 (ip), vehicle: Klucel (hydroxypropylcellulose) (HPC) 98 % of control and 100 % of control | dose: 50.0 mg/kg/injection, schedule: Q01DX009 (ip), vehicle: Klucel (hydroxypropylcellulose) (HPC) 98 % of control and 89 % of control (2×) | dose: 100.0 mg/kg/injection, schedule: Q01DX009 (ip), vehicle: Klucel (hydroxypropylcellulose) (HPC) 99 % of control and 87 % of control

COc1cc2c(cc1OC)-c1cc(C)c3cc(OC)c(OC)cc3[n+]1CC2
inactive: [3] 111 % of control | [4] 110 % of control | [5] 117 % of control

C=C1C(C(=O)OCC)=NNc2c(C(N)=O)ncn21
inactive: [1] 96 % of control | [2] 101 % of control | dose: 400.0 mg/kg/injection, schedule: Q04DX002 (ip), vehicle: Klucel (hydroxypropylcellulose) (HPC) 104 % of control

Cc1[nH]oc(=O)c1C(=O)O
inactive: dose: 50.0 mg/kg/injection, schedule: Q01DX009 (ip), vehicle: saline 100 % of control | dose: 100.0 mg/kg/injection, schedule: Q01DX009 (ip), vehicle: saline 99 % of control | dose: 200.0 mg/kg/injection, schedule: Q01DX009 (ip), vehicle: saline 89 % of control

CC(C)=CCC(OC(=O)C=C(C)C)c1cc(O)c2c(O)ccc(O)c2c1O.[O]=[V] (stereo not given)
inactive: dose: 100.0 mg/kg/injection, schedule: Q04DX002 (ip), vehicle: saline with Tween-80 92 % of control | dose: 200.0 mg/kg/injection, schedule: Q04DX002 (ip), vehicle: saline with Tween-80 92 % of control | dose: 400.0 mg/kg/injection, schedule: Q04DX002 (ip), vehicle: saline with Tween-80 109 % of control

O=C(CCl)Nc1c(Br)cc(F)cc1Br
inactive: dose: 50.0 mg/kg/injection, schedule: Q01DX009 (ip), vehicle: saline with Tween-80 88 % of control | dose: 100.0 mg/kg/injection, schedule: Q01DX009 (ip), vehicle: saline with Tween-80 99 % of control | dose: 200.0 mg/kg/injection, schedule: Q01DX009 (ip), vehicle: saline with Tween-80 104 % of control

COc1cc(/C=C\Cc2cc3c(cc2OC(C)=O)OCO3)cc(OC)c1OC
inactive: [6] 91 % of control | [7] 91 % of control | [8] 90 % of control

O=P1(NNc2ncccn2)SC(NN=C2CCCCC2)=NC12CCCCC2 (stereo not given)
inactive: dose: 7.5 mg/kg/injection, schedule: Q01DX005 (ip), vehicle: Klucel (hydroxypropylcellulose) (HPC) 100 % of control | dose: 15.0 mg/kg/injection, schedule: Q01DX005 (ip), vehicle: Klucel (hydroxypropylcellulose) (HPC) 95 % of control | dose: 30.0 mg/kg/injection, schedule: Q01DX005 (ip), vehicle: Klucel (hydroxypropylcellulose) (HPC) 95 % of control | [9] 100 % of control

CCCCCCCCCCCCS(=O)(=O)CC(Br)C(=O)c1ccco1 (stereo not given)
inactive: dose: 100.0 mg/kg/injection, schedule: Q04DX002 (ip), vehicle: saline 100 % of control | dose: 200.0 mg/kg/injection, schedule: Q04DX002 (ip), vehicle: saline 100 % of control | dose: 400.0 mg/kg/injection, schedule: Q04DX002 (ip), vehicle: saline 100 % of control

COc1ccc2c3c1OC1C(O)C=CC4C(C2)N(C)CCC341 (stereo not given)
inactive: dose: 3.12 mg/kg/injection, schedule: Q01DX009 (ip), vehicle: saline with Tween-80 102 % of control | dose: 6.25 mg/kg/injection, schedule: Q01DX009 (ip), vehicle: saline with Tween-80 105 % of control | dose: 12.5 mg/kg/injection, schedule: Q01DX009 (ip), vehicle: saline with Tween-80 112 % of control | dose: 25.0 mg/kg/injection, schedule: Q01DX009 (ip), vehicle: saline with Tween-80 114 % of control

CCOC(=O)OCC1OC(OC(C)=O)C(OC(C)=O)C(OC(=O)OCC)C1OC(=O)OCC (stereo not given)
inactive: dose: 12.5 mg/kg/injection, schedule: Q01DX009 (ip), vehicle: water 95 % of control | dose: 25.0 mg/kg/injection, schedule: Q01DX009 (ip), vehicle: water 99 % of control | [3] 91 % of control | [4] 99 % of control | [5] 90 % of control

Cc1ncc(C(=O)O)n1Cc1ccccc1
inactive: [9] 94 % of control | dose: 120.0 mg/kg/injection, schedule: Q01DX005 (ip), vehicle: Klucel (hydroxypropylcellulose) (HPC) 93 % of control | dose: 240.0 mg/kg/injection, schedule: Q01DX005 (ip), vehicle: Klucel (hydroxypropylcellulose) (HPC) 93 % of control

Cc1cccc(OCCOC(=O)Nc2cccc(C(F)(F)F)c2)c1
inactive: [6] 99 % of control | [7] 96 % of control | [8] 96 % of control

COC(=O)C1c2cc(OC)c(OC)cc2C(=O)N2CCc3cc4c(cc3C12)OCO4 (stereo not given)
inactive: dose: 50.0 mg/kg/injection, schedule: Q04DX003 (ip), vehicle: distilled water + Tween-80 100 % of control and 101 % of control | dose: 100.0 mg/kg/injection, schedule: Q04DX003 (ip), vehicle: distilled water + Tween-80 99 % of control and 105 % of control | dose: 200.0 mg/kg/injection, schedule: Q04DX003 (ip), vehicle: distilled water + Tween-80 97 % of control and 101 % of control | dose: 400.0 mg/kg/injection, schedule: Q04DX003 (ip), vehicle: distilled water + Tween-80 104 % of control and 100 % of control

CCOC(=O)C1(c2cc(NS(=O)(=O)c3ccccc3)ccc2O)CCCCC1=O (stereo not given)
inactive: dose: 12.5 mg/kg/injection, schedule: Q01DX001 (ip), vehicle: saline with Tween-80 104 % of control | dose: 25.0 mg/kg/injection, schedule: Q01DX001 (ip), vehicle: saline with Tween-80 104 % of control | dose: 50.0 mg/kg/injection, schedule: Q01DX001 (ip), vehicle: saline with Tween-80 100 % of control
